Measured values taken from patent publication US6143910A, “Methods for preparation and use of 1α, 24(S) -dihydroxy vitamin D2” (priority 1998, dated 2000).
“Also recorded” adds a separate entry of the source. Read-outs that look alike come from different tables or passages of the source.

Key:
bovine thymus VDR = biological target: T1, bovine thymus VDR (Bos taurus, UniProt Q28037); experiment: Radioreceptor assay with bovine thymus VDR (Incstar), displacement of 3H-1α,25-(OH)2 D3; format: binding
T1 construct: commercially available kit of bovine thymus VDR; purchased Incstar (Stillwater, Minn.); host or cells: bovine thymus
T1 sequence (Q28037 1-426): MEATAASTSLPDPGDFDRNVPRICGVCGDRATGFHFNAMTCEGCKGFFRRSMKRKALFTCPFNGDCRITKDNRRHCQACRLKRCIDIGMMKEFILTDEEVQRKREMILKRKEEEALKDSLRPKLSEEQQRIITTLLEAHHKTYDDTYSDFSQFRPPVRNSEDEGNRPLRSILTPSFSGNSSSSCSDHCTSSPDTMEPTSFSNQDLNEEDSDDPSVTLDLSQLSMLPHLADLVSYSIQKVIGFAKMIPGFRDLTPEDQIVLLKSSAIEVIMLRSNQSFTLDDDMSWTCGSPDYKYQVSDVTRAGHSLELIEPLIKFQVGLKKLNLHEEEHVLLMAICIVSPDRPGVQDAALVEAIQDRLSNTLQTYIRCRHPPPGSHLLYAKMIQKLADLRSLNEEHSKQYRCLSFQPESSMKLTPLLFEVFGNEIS
Description: Purified 1α,24(S)-(OH)2 D2 was quantitated by photodiode array spectrophotometry and assayed in the radioreceptor assay.
The purified 1α,24(R)-(OH)2 D2 and 1α,24(S)-(OH)2 D2 epimers were quantitated by ultraviolet spectroscopy. The concentration of 1α,24(R)-(OH)2 D2 required to produce the same displacement of ^3 H-1α,25-(OH)2 D3 tracer from the receptor was 20 to 30 times that required for 1α,24(S)-(OH)2 D2, as shown in FIG. 4.

[1] = biological target: T2, vitamin D serum binding protein (DBP) (Rattus norvegicus, UniProt P04276); experiment: Affinity for vitamin D serum binding protein using vitamin D deficient rat serum
T2 sequence (P04276 17-476): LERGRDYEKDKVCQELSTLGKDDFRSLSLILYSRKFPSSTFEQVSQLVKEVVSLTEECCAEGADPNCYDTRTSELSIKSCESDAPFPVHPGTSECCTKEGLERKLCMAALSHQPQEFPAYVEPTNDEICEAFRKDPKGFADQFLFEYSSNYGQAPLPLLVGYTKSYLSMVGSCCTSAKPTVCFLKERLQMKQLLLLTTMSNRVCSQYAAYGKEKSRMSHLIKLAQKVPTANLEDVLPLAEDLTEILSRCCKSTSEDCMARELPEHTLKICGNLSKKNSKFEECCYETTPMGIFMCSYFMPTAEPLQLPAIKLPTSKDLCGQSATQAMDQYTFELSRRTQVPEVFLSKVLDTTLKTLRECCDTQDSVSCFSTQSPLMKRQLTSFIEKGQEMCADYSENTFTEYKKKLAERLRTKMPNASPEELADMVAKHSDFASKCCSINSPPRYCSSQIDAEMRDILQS
Description: In addition, the weak binding by the DBP was indicative of more rapid clearance, allowing for low toxicity.

[2] = Dose ranging study in postmenopausal osteoporotic women; format: in vivo, human; conditions: oral 0.5 to 8.0 μg/day, escalated weekly over five weeks
Procedure: Twenty postmenopausal osteoporotic women are enrolled in an open label study.
On admission to the study, all patients receive instruction on selecting a daily diet containing 400 to 600 mg of calcium. Compliance to this diet is verified at weekly intervals by 24-hour food records and by interviews with each patient.
All patients complete a one-week baseline period, a five-week treatment period, and a one-week post-treatment observation period. During the treatment period, patients orally self-administer 1α,24(S)-dihydroxyvitamin D2 at an initial dose of 0.5 μg/day for the first week, and at successively higher doses of 1.0, 2.0, 4.0, and 8.0 μg/day in each of the following four weeks. All doses are administered before breakfast.
Blood and urine chemistries are monitored on a weekly basis throughout the study. Key blood chemistries include fasting serum levels of-calcium, phosphorus, osteocalcin, creatinine, and blood urea nitrogen. Key urine chemistries include 24-hour excretion of calcium, phosphorus, and creatinine.

[3] = Prophylaxis of postmenopausal bone loss in healthy postmenopausal women; format: in vivo, human; conditions: at or above 1.0 μg/day
Procedure: A clinical study is conducted with healthy postmenopausal women having ages between 55 and 60 years. The study involves up to 80 patients randomly divided into two treatment groups, and continues for 24 to 36 months. One treatment group receives a constant dosage of 1α,24(S)-dihydroxy vitamin D2 (u.i.d.; a dose level at or above 1.0 μg/day) and the other receives a matching placebo. The study is conducted as indicated in Example 2 above.

## C=C1/C(=C\C=C2/CCC[C@]3(C)[C@@H]([C@H](C)/C=C/[C@@](C)(O)C(C)C)CC[C@@H]23)C[C@@H](O)C[C@@H]1O [1α,24(S)-(OH)2 D2, 1α,24(S)-dihydroxy Vitamin D2]
Bovine thymus VDR
  Affinity for VDR relative to 1α,25-(OH)2 D3: two-fold less competitive; also recorded: two-fold lower affinity
[1]
  Binding affinity for the vitamin D serum binding protein (in words): relatively poor binding affinity
[1]; listed as 1α,24(S)-dihydroxy vitamin D2
  Binding affinity for the vitamin D serum binding protein (in words): more weakly than does 1,25-(OH)2 D3
[2]
  24-hour urinary calcium levels: modest increases
  Routinely monitored serum parameters: no effect on any routinely monitored serum parameters
  Serum osteocalcin levels: increases in serum osteocalcin levels
  Urinary excretion of hydroxyproline: nor does it increase urinary excretion of hydroxyproline
[3]; 24 to 36 months
  Losses in total body calcium, radial or spinal bone densities versus baseline: reduced losses
[3]; long-term
  Monitored safety parameters: confirm the safety
